Data as given in the supplement of paper PMC5908809.

What was measured:
[1] = test system: DERL-7 (IL-2 2.5 ng/mL); test: percent inhibition of viability; higher = more inhibition; conditions: 72 h
[2] = test system: normal primary NK cells, pool 2 (3 donors) (IL-2 2.5 ng/mL); test: as above; conditions: 72 h
[3] = test system: normal primary NK cells, pool 1 (3 donors) (IL-2 2.5 ng/mL); test: as above; conditions: 72 h
[4] = test system: KAI3 (IL-2 2.5 ng/mL); test: as above; conditions: 72 h
[5] = test system: NK-YS (IL-2 2.5 ng/mL); test: as above; conditions: 72 h
[6] = test system: IMC-1 (IL-2 20 ng/mL); test: as above; conditions: 72 h
[7] = test system: SNK-6 (IL-2 2.5 ng/mL); test: as above; conditions: 72 h
[8] = test system: normal primary NK cells, pool 1 (3 donors), resting (IL-2 0 ng/mL); test: as above; conditions: 72 h
[9] = test system: NK-92 (IL-2 2.5 ng/mL); test: as above; conditions: 72 h
[10] = test system: normal primary NK cells, pool 3 (3 donors) (IL-2 2.5 ng/mL); test: as above; conditions: 72 h
[11] = test system: KHYG-1 (IL-2 2.5 ng/mL); test: as above; conditions: 72 h
[12] = test system: NKL (IL-2 2.5 ng/mL); test: as above; conditions: 72 h
[13] = test system: YT (IL-2 2.5 ng/mL); test: as above; conditions: 72 h
[14] = test system: normal NK cells expanded with K562-aAPC; test: drug sensitivity score (DSS) (DSS units); higher = more sensitive; extreme values may be limits of the assay; conditions: 72 h; IL-2 2.5 ng/mL
Description: (§1)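 Drug sensitivity and resistance testing on K562-aAPC-expanded normal NK cells: 5 concentrations (10-fold steps over a 10,000-fold range), 72 h at 37 °C, viability by CellTiter-Glo normalised to DMSO and benzethonium chloride controls; DSS from the fitted curve.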

[15] = test system: normal NK cells expanded with K562-aAPC; test: percent inhibition of viability; higher = more inhibition; conditions: 72 h, IL-2 2.5 ng/mL
Description: as §1

[16] = test system: DERL-7 (IL-2 2.5 ng/mL); test: drug sensitivity score (DSS) (DSS units); higher = more sensitive; extreme values may be limits of the assay; conditions: 72 h
[17] = test system: normal primary NK cells, pool 2 (3 donors) (IL-2 2.5 ng/mL); test: as above; conditions: 72 h
[18] = test system: normal primary NK cells, pool 1 (3 donors) (IL-2 2.5 ng/mL); test: as above; conditions: 72 h
[19] = test system: KAI3 (IL-2 2.5 ng/mL); test: as above; conditions: 72 h
[20] = test system: NK-YS (IL-2 2.5 ng/mL); test: as above; conditions: 72 h
[21] = test system: IMC-1 (IL-2 20 ng/mL); test: as above; conditions: 72 h
[22] = test system: SNK-6 (IL-2 2.5 ng/mL); test: as above; conditions: 72 h
[23] = test system: normal primary NK cells, pool 1 (3 donors), resting (IL-2 0 ng/mL); test: as above; conditions: 72 h
[24] = test system: NK-92 (IL-2 2.5 ng/mL); test: as above; conditions: 72 h
[25] = test system: normal primary NK cells, pool 3 (3 donors) (IL-2 2.5 ng/mL); test: as above; conditions: 72 h
[26] = test system: KHYG-1 (IL-2 2.5 ng/mL); test: as above; conditions: 72 h
[27] = test system: NKL (IL-2 2.5 ng/mL); test: as above; conditions: 72 h
[28] = test system: YT (IL-2 2.5 ng/mL); test: as above; conditions: 72 h

CCCCCOC(=O)Nc1nc(=O)n([C@@H]2O[C@H](C)[C@@H](O)[C@H]2O)cc1F [Capecitabine] (max concentration tested 10000 nM)
percent inhibition of viability [%]
Conditions	1 nM	10 nM	100 nM	1000 nM	10000 nM
[1]	0.46	4.42	-2.34	4.15	52.2
[2]	-2.47	1.21	-0.29	-0.41	-2.27
[3]	-11.1	-11.6	0.78	-4.13	-5.4
[4]	1.53	10.3	11	18.4	51.4
[5]	-5.86	-8.43	-2.42	-0.04	39
[6]	-3.3	-4.34	-6.24	-6.22	-8.14
[7]	12	11.5	0.05	16.4	72.5
[8]	-8.89	-7.83	13.7	10.2	11
[9]	-10.2	1.4	2.48	-3.88	10.2
[10]	0.26	5.64	1.92	7.05	2.46
[11]	-4.65	-8.98	-2.6	-4.39	-2.75
[12]	-14.2	-5.91	-4.8	5.16	-0.14
[13]	-3.7	-7.15	-2.55	-0.84	48.6
[15]	-1.3	3.24	-1.87	-1.09	-2.22

Conditions	drug sensitivity score
[14]	0
[16]	3.42
[17]	0
[18]	0
[19]	4.96
[20]	1.92
[21]	0
[22]	6.62
[23]	1.76
[24]	0
[25]	0
[26]	0
[27]	0
[28]	2.47
